# Test results from US6482951B2 (Hoffmann-La Roche Inc., priority 2000, dated 2002).
# Molecular target: T1, Human liver GK1 (GST-GK) (Homo sapiens, UniProt P35557)
# T1 construct: made in house; host or cells: E. coli
# T1 sequence (P35557 1-466 isoform P35557-2): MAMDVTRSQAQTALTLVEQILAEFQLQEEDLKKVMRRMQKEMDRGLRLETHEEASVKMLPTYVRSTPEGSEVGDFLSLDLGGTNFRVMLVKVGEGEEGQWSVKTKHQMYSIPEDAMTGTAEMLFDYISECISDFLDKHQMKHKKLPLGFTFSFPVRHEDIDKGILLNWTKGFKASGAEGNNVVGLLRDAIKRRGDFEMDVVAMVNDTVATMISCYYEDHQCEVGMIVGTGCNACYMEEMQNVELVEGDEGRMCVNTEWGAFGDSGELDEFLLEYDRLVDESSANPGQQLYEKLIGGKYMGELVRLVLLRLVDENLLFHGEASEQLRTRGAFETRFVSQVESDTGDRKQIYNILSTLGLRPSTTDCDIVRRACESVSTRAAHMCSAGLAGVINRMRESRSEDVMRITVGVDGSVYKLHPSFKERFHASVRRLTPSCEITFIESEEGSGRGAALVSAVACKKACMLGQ
# Test: In vitro glucokinase activity assay (G6PDH-coupled, NADH, OD 340 nm)
# Assay type: biochemical
# Conditions: 25° C., 5 mM D-glucose, 1 mM ATP, 10% DMSO, recombinant GST-GK
# Procedure: Glucokinase Assay: Glucokinase (GK) was assayed by coupling the production of glucose-6-phosphate to the generation of NADH with glucose-6-phosphate dehydrogenase (G6PDH, 0.75-1 kunits/mg; Boehringer Mannheim, Indianapolis, Ind.) from Leuconostoc mesenteroides as the coupling enzyme (Scheme 2). Recombinant
# Human liver GK1 was expressed in E. coli as a glutathione S-transferase fusion protein (GST-GK) [Liang et al, 1995] and was purified by chromatography over a glutathione-Sepharose 4B affinity column using the procedure provided by the manufacturer (Amersham Pharmacia Biotech, Piscataway, N.J.).
# The assay was conducted at 25° C. in a flat bottom 96-well tissue culture plate from Costar (Cambridge, Mass.) with a final incubation volume of 120 μl. The incubation mixture contained: 25 mM Hepes buffer (pH, 7.1), 25 mM KCl, 5 mM D-glucose, 1 mM ATP, 1.8 mM NAD, 2 mM MgCl2, 1 μM sorbitol-6-phosphate, 1 mM dithiothreitol, test drug or 10% DMSO, 1.8 unit/ml G6PDH, and GK (see below). […]
# After addition of enzyme, the increase in optical density (OD) at 340 nm was monitored over a 10 minute incubation period as a measure of GK activity. […] The GK activity in control wells was compared with the activity in wells containing test GK activators, and the concentration of activator that produced a 50% increase in the activity of GK, i.e., the SC1.5, was calculated.
row,Structure (SMILES),SC1.5 (concentration of activator that produced a 50% increase in the activity of GK)
1,"O=C(Nc1nccs1)[C@@H](CC1CCCCC1)N1Cc2ccccc2C1=O [Example 9, (R)-3-cyclohexyl-2-(1-oxo-1,3-dihydro-isoindol-2-yl)-N-thiazol-2-yl-propionamide]",36 µM

# System: C57BL/6J mice
# Test: Glucokinase activator in vivo screen (blood glucose after oral dosing)
# Conditions: oral gavage 50 mg/kg, blood glucose at 0, 1, 2, 4, 6 h, active = significant (p ≦0.05) decrease for two consecutive time points
# Procedure: Glucokinase Activator in vivo Screen Protocol: C57BL/6J mice are orally dosed via gavage with Glucokinase (GK) activator at 50 mg/kg body weight following a two hour fasting period. Blood glucose determinations are made five times during the six hour post-dose study period.
# Mice (n=6) are weighed and fasted for a two hour period prior to oral treatment. GK activators are formulated at 6.76 mg/ml in Gelucire vehicle (Ethanol:Gelucire44/14:PEG400q.s. 4:66:30 v/w/v. Mice are dosed orally with 7.5 μl formulation per gram of body weight to equal to a 50 mg/kg dose. Immediately prior to dosing, a pre dose (time zero) blood glucose reading is acquired by snipping off a small portion of the animals tail (˜1 mm) and collecting 15 μl blood into a heparinized capillary tube for analysis. Following GK activator administration, additional blood glucose reading are takenat 1, 2, 4 and 6 hours post dose from the same tail wound. Results are interpreted by comparing the mean blood glucose values of six vehicle treated mice with six GK activator treated mice over the six hour study duration. Compounds are considered active when they exibit a statistically significant (p ≦0.05) decrease in blood glucose compared to vehicle for two consecutive assay time points.
row,Structure (SMILES),glucokinase activator in vivo activity (decrease in blood glucose compared to vehicle)
1,"O=C(Nc1ncc(Cl)s1)C(CC1CCCC1)N1Cc2ccccc2C1=O (centres unmarked) [Example 18, N-(5-Chloro-thiazol-2-yl)-3-cyclopentyl-2-(1-oxo-1,3-dihydro-isoindol-2-yl)-propionamide]",excellent glucokinase activator in vivo activity
2,"O=C(Nc1ccccn1)[C@H](CC1CCCCC1)N1Cc2ccccc2C1=O [Example 26, (S)-3-Cyclohexyl-2-(1-oxo-1,3-dihydro-isoindol-2-yl)-N-pyridin-2-yl-propionamide]",excellent glucokinase activator in vivo activity
3,"O=C(Nc1nccs1)[C@H](CC1CCCCC1)N1Cc2c(F)cccc2C1=O [Example 23.1, (S)-3-Cyclohexyl-2-(4-fluoro-1-oxo-1,3-dihydro-isoindol-2-yl)-N-thiazol-2-yl-propionamide]",excellent glucokinase activator in vivo activity
4,"Cc1ccc(NC(=O)[C@H](CC2CCCCC2)N2Cc3ccccc3C2=O)nc1 [Example 31, (S)-3-Cyclohexyl-2-(1-oxo-1,3-dihydro-isoindol-2-yl)-N-5-methyl-pyridin-2-yl-propionamide]",excellent glucokinase activator in vivo activity
5,O=C(Nc1cnccn1)[C@H](CC1CCCCC1)N1Cc2c(F)cccc2C1=O [Example 25.1],excellent glucokinase activator in vivo activity
6,"O=C(Nc1ccc(Br)cn1)[C@H](CC1CCCCC1)N1Cc2ccccc2C1=O [Example 22, (S)-N-(5-Bromo-pyridin-2-yl)-3-cyclohexyl-2-(1-oxo-1,3-dihydro-isoindol-2-yl)-propionamide]",excellent glucokinase activator in vivo activity
7,"O=C(Nc1nccs1)[C@H](CC1CCCCC1)N1Cc2ccccc2C1=O [Example 1, (S)-3-cyclohexyl-2-(1-oxo-1,3-dihydro-isoindol-2-yl)-N-thiazol-2-yl-propionamide]",excellent glucokinase activator in vivo activity
8,"O=C(Nc1cnccn1)[C@H](CC1CCCCC1)N1Cc2ccccc2C1=O [Example 15, (S)-3-Cyclohexyl-2-(1-oxo-1,3-dihydro-isoindol-2-yl)-N-pyrazin-2-yl-propionamide]",excellent glucokinase activator in vivo activity
9,"O=C(Nc1ccncn1)[C@H](CC1CCCCC1)N1Cc2ccccc2C1=O [Example 14, 3-Cyclohexyl-2-(1-oxo-1,3-dihydro-isoindol-2-yl)-N-pyrimidin-4-yl-propionamide]",excellent glucokinase activator in vivo activity
10,"O=C(Nc1ccc(Cl)cn1)[C@H](CC1CCCCC1)N1Cc2ccccc2C1=O [Example 33, (S)-3-Cyclohexyl-2-(1-oxo-1,3-dihydro-isoindol-2-yl)-N-5-chloro-pyridin-2-yl-propionamide]",excellent glucokinase activator in vivo activity
